For assay [1], the system named is pEzh2S21 and H3K27me3. The assay is described as follows: Immunoblot analysis of TCR-activated Pmel-1 CD8+ T cells. The assay is classed as cell-based, mouse. The following applies: proliferating Pmel-1 CD8+ T cells stimulated in vitro for 7 days, with or without MK2206. A general note: In western blotting, separated proteins are transferred to a membrane and probed.

Assay [2] relates to promoter regions of Id3, Id2, Eomes and Prdm1 loci. The assay is described as follows: ChIP analysis of Ezh2 and H3K27me3 deposition in cultured Pmel-1 cells. In kind it is cell-based, mouse. The note with it: Akt inhibition. On the procedure:
A Millipore ChIP kit and Diagenode ChIP kit was used for ChIP assay as described by the manufacturer. DNA-protein complexes were crosslinked with formaldehyde at a final concentration of 1%. Sonicated extracts were precleared and incubated with Abs specific to Ezh2, H3K27me3, or nonspecific anti-IgG. The immunoprecipitated DNA was quantified by real-time quantitative PCR.

The subject of assay [3] is Id3, Id2, Eomes and Prdm1. The experiment in a line: Real-time RT-PCR analysis of Ezh2-targeted genes in cultured Pmel-1 cells. The assay is classed as cell-based, mouse. The following applies: WT Pmel-1 cells, anti-CD3/CD28 Ab+IL-2, inhibitor treatment for 7 days. On the procedure:
Splenic and LN CD44loCD8+ TN cells were prepared as previously described (Zhang et al., 2002, J Immunol, 169:7111-7118; Zhang et al., 2005, Nat Med, 11:1299-1305). The purity was usually 90-95%. CD8+ T cell cultures were set up as previously described (He et al., 2013, Blood, 122:4119-4128; Tong et al., 2014, J Immunol, 192:5012-5022). In brief, CD44loCD8+ naive T cells (were cultured in the presence of anti-CD3 (2 μg/ml) and anti-CD28 (2.0 μg/ml) Abs together with recombinant human IL-2 (10 ng/ml; R&D Systems). In vivo sorted T cells and cultured T cells were restimulated with anti-CD3 Ab (1 μg/ml; BioLegend) or human gp100 (10^−6 M) for 5 hours before intracellular staining. Bone marrow-derived dendritic cells (DCs) were generated as previously described (Zhang et al., 2005, Nat Med, 11:1299-1305). For TAT-Cre experiments, 10^6 purified CD8^+ T cells or splenocytes were incubated in 100 μL serum-free RPMI containing 90 to 100 μg/mL TAT-Cre fusion protein for 16 hours at 37° C. After extensive washing, treated cells were kept in vitro culture for another 5 days.
The MigR1 retroviral vector system was described previously (Tong et al., 2014, J Immunol, 192:5012-5022; Pear et al., 1998, Blood, 92:3780-3792). Ezh2, Ezh2 mutants, and Id3 cDNA was cloned into Mig-R1 (GFP) vector. For retroviral infection, CD8+ T cells were prestimulated with anti-CD3/CD28 Ab for 24 hours, and then the retrovirus supernatant was added in the presence of 8 μg/ml polybrene (Sigma). Cells were spinoculated at 3000 rpm, 32° C. for 3 hours. The same retroviral infection procedure was repeated 24 hours later (Tong et al., 2014, J Immunol, 192:5012-5022).
RNA was isolated with an RNeasy Mini kit (Qiagen) and cDNA was generated by reverse transcription (Applied Biosystems). Real-time RT-PCR was performed with a SYBR green PCR mix (ABI Biosystems) in the Realplex Eppendorf Real-time PCR instrument (Eppendorf AG). Gene expression levels were calculated relative to the 18s gene. Data were collected and quantitatively analyzed on a Realplex sequence detection system (Eppendorf AG), and Applied Biosystems StepOne Plus Real-time PCR systems (Applied Biosystems).

The test system of assay [4] is B16 melanoma. The experiment in a line: Adoptive transfer of Pmel-1 cells into B6 mice with pre-established B16 melanoma, tumor size over time. The following applies: Pmel-1 cells treated during ex vivo culture, transferred into B16 melanoma-bearing B6 mice. The assay is classed as in vivo, mouse. The method, then:
Pmel-1 T cells (1×10^4 to 1×10^6) were transferred into sublethally irradiated B6 mice (5.0 Gy). IL-2 (100,000 IU) was administered intraperitoneally twice a day, and BM-derived DCs which have been pulsed with gp100 (10 μg) were transferred via tail vein, for constitutively three days after adoptive transfer. C57BL/6 mice were injected subcutaneously with 5×10^5 B16 melanoma cells. In some experiments, Ezh2^fl/fl mice were intravenously received VVA-gp100 or VVA-OVA.
The Abs used for flow cytometric analyses were purchased from eBioscience, BioLegend, or BD Biosciences. Flow cytometric analyses were performed with FACS LSRII (BD Biosciences) as described (Zhang et al., 2005, Nat Med, 11:1299-1305; Zhang et al., 2002, J Immunol, 169:7111-7118). B16 mouse melanoma cell line was from American Type Culture Collection.

The structures appear in SMILES notation.

`NC1(c2ccc(-c3nc4ccn5c(=O)[nH]nc5c4cc3-c3ccccc3)cc2)CCC1` [MK2206]: in assay [1], the “H3K27me3 (immunoblot)” value is listed as “increase” and the “pEzh2S21 (immunoblot)” value is “marked decrease”. Also, in assay [2], the “amount of Ezh2 at the promoter regions of Id3, Id2, Eomes and Prdm1 loci” value is listed as “significantly increased”; the “amount of H3K27me3 at the promoter regions of Id3, Id2, Eomes and Prdm1 loci” value is “significantly increased”. Moreover, in assay [3], the Eomes expression result is given as “reducing”, the Id2 expression result is “reducing”, the Id3 expression result was “upregulated” and the Prdm1 expression result was “reducing”. For the same compound, the “anti-tumor activity (tumor growth)” value in assay [4] is recorded as “greater anti-tumor activity than untreated Pmel-1 cells, but was less potent than Ezh2S21A-transduced Pmel-1 cells”.

For `Oc1cccc(-c2nc(N3CCOCC3)c3oc4ncccc4c3n2)c1` [PI103], in assay [3], the Eomes expression result is recorded as “reducing”, the Id2 expression entry is given as “reducing”, the Id3 expression entry was “upregulated” and the Prdm1 expression result is “reducing”.

For the origin of these results see US12024715B2, “Compositions and methods for improved T cells” (Temple University-Of The Commonwealth System of Higher …, priority 2017, dated 2024).
